# Results from US20120309734A1, “COMBRETASTATIN DERIVATIVES AND USES THEREFOR” (priority 2009, published 2012).
# Tests used:
# HL-60 parental = assay: Alamar Blue cell viability assay; type: cell-based; conditions: Homo sapiens, 72 h
# Description: (§1) Cells were exposed to multiple concentrations of the indicated compound for 72 h. Cell viability was assessed using the Alamar blue assay and respective IC50 values were calculated. The resistance factor (RF) was calculated by dividing the IC50 of the resistant cell line/IC50 of the parental cell line.
# (§2) A2780-parental and A2780-ADR resistant cells were provided by the Beatson Institute of Cancer Research, Glasgow. […] All cells were cultured in RPMI-1640 Glutamax medium supplemented with 10% FCS media, 100 units/ml penicillin and 100 μg/mIstreptomycin. Cells were maintained at 37° C. in 5% CO2 in a humidified incubator.
# (§3) The reduction of Alamar Blue is proportional to the number of viable cells. Cells (200 μl) were plated in triplicate in a 96-well plates (K562, 100,000/ml; HL-60, 300,000/ml; A-2780 50,000/ml). A-2780 cells were plated 24 h prior to treatment. Suspension cells were plated in the log phase of growth and treated immediately. The cells were then treated with either medium alone, vehicle (1% ethanol v/v or 0.1% DMSO v/v) or with a range of concentrations of drug [0.001-10 μM]. After 72 h, Alamar Blue was added to each well (10% of final volume) and fluorescence was read using a 96-well fluorometer with excitation at 530 nm and emission of 590 nm. The blank solution consisted of medium and Alamar Blue and the blank solution was used to calibrate the spectrophotometer to zero absorbance. The relative cell viability (%) related to control wells and was calculated by [A]test/[A]control×100 where [A]test is the absorbance of the drug treated cells and [A]control the absorbance of the vehicle control treated cells. Dose response curves were plotted and IC50 values (concentration of drug resulting in 50% reduction in cell survival) were obtained using the commercial software package Prism (GraphPad Software, Inc., La Jolla, USA). Experiments were performed in triplicate on at least three separate occasions.
# HL-60-MDR(PGP) = assay: Alamar Blue cell viability assay; type: cell-based, human
# Description: (§4) Three drug resistant cell lines and respective parental cell lines were assessed. […] Western blot analysis confirmed the overexpression of p-glycoprotein and BCRP in respective cell lines.
# as §1
# (§5) All cells were cultured in RPMI-1640 Glutamax medium supplemented with 10% FCS media, 100 units/ml penicillin and 100 μg/mIstreptomycin. Cells were maintained at 37° C. in 5% CO2 in a humidified incubator.
# as §3
# A2780-parental = assay: Alamar Blue cell viability assay; type: cell-based; conditions: 72 h
# Description: as §1, §2, §3
# [1] = tested on: primary endothelial cell (HUVEC); assay: Endothelial cell proliferation, AlamarBlue; type: cell-based; conditions: Homo sapiens, 72 h, read-out: IC50, proliferation of HUVECs
# Description: A range of concentrations of cis β-lactam 4, were tested on primary endothelial cell (HUVEC) proliferation. HUVEC cells (20,000 cells/well) were seeded onto 96-well plates for 24 h and treated in triplicate with vehicle alone (1% (v/v) ethanol) or a range of concentrations of compound 4 for 72 h. The cells were then incubated in 10% (v/v) AlamarBlue and its reduction to a fluorescent state measured at excitation 544 nm and emission 590 nm using a multi-well fluorimeter. The results were expressed as the percentage cell proliferation relative to vehicle-treated control cells (100%). Values represent the mean±the S.E.M for three separate experiments. IC50 values were obtained using Prism GraphPad 4.
# Pooled primary human umbilical vein endothelial cells (HUVECs) and their associated reagents were all obtained from Cascade Biologics, Invitrogen, Carlsbad, Calif., USA. HUVECs were maintained between passages 1-4 in Medium 200 supplemented with LSGS (low serum growth factor supplement) and utilised for experiments at passage 4.
# HUVEC cells = assay: HUVEC DNA content by flow cytometry (PI); type: cell-based, human; conditions: 24 h
# Description: FIG. 8 illustrates the anti-proliferative response of endothelial cells to compound 4. HUVEC cells were treated with vehicle (0.5% (v/v) ethanol) or the indicated concentrations of 4 for 24 h and fixed by a drop-wise addition of ice-cold ethanol. Cells were then stained with 0.15 mg/ml propidium iodide (PI) and their DNA content assessed using a FACSCalibur flow cytometer (Becton Dickinson, San Jose, Calif., USA). Data collections (10,000 events per sample) were gated to exclude cell debris and cell aggregates. Analysis of data was performed using the CellQuest software (Becton Dickinson). PI fluorescence was proportional to the amount of DNA present in each entity and therefore indicated the stage of the cell cycle. Cells in the subG0/G1 phase (<2N DNA) were deemed apoptotic, while cells with 4N quantities of DNA were considered to be in the G2/M phase of the cell cycle. Values represent the mean±S.E.M for three independent experiments.
# [2] = tested on: microtubule network of endothelial cells (HUVECs); assay: Microtubule network immunofluorescence; type: cell-based, human; conditions: 50 nM, 16 h
# Description: FIG. 9 illustrates the effect of compound 4 in destabilising the microtubule network of endothelial cells. HUVECs (0.6×10^5 cell/chamber), grown on 4-chamber glass slides for 24 h were treated with vehicle (0.5% (v/v) ethanol) or 50 nM compound 4 for 16 h. The cells were then fixed in 100% methanol at −20° C., incubated with a monoclonal anti-α-tubulin antibody (Merck Biosciences, Nottingham, UK), followed by a FITC-conjugated anti-mouse antibody (DakoCytomation, Glostrup, Denmark) and then briefly stained with propidium iodide. The chamber partitions were removed from the slides and anti-quenching solution (2 mg/ml p-phenylenediamine in 50:50 glycerol to PBS solution) was applied to the surface of each slide and coverslips mounted. The organisation of the microtubule network and the cellular DNA was visualised using an Olympus IX81 Fluorescent Microscope (Olympus Corporation, Tokyo, Japan) at a magnification of 600×. The photographs illustrated in FIG. 9 are representative of three independent experiments.
# HUVECs = assay: In vitro tubule formation on matrigel; type: cell-based, human; conditions: 50 nM, 6 h
# Description: FIG. 10 depicts the effect of compound 4 on in vitro tubule formation. HUVECs (1.5×10^6 cells/well) were grown on matrigel-coated 6-well plates for 6 h in the presence of vehicle (0.5% (v/v) ethanol) or 50 nM compound 4. […] The pictures shown in FIG. 10 are representative of three independent experiments. HUVECs seeded onto Matrigel in the presence of vehicle (0.5% (v/v) ethanol) underwent alignment into the capillary-like structures.
# [3] = tested on: breast carcinoma MDA-MB-231 cells; assay: Transwell migration assay; type: cell-based, human; conditions: 50 nM, 6 h
# Description: FIG. 12 illustrates the migration of breast carcinoma MDA-MB-231 cells across transwell filters in the presence of vehicle (0.5% (v/v) ethanol) or 50 nM compound 4. Migration was expressed as a percentage of migration of vehicle-treated cells (100%). MDA-MB-231 cells (cultured as described supra) were seeded at a density of 2.5×10^4 cells/well onto 24-well Falcon migration inserts (8 μm pore size) in serum-free medium. Inserts were placed into Falcon companion plates containing 20% FBS and either vehicle (0.5% (v/v) ethanol) or 50 nM compound 4 and incubated for 6 h. The upper surfaces of the inserts were swabbed to remove non-migrated cells. Migrated cells on the underside of the membrane were fixed in methanol, stained with Mayers Hematoxylin, dehydrated in methanol and mounted on a glass slide. The number of cells in 5 fields at 10× magnification was counted. […] P-values were determined using a two-tailed Student's paired t-test. A value of P<0.05 was considered to be significant. Incubation for 6 h with compound 4 prevented MDA-MB-231 cell migration by 95.7% (***P<0.0001).
# SNB-75 = assay: NCI60 cell line screen; type: cell-based; conditions: Homo sapiens, CNS
# HL-60-BCRP = assay: Alamar Blue cell viability assay
# Description: as §4, §1, §5, §3
# A2780-ADR (PGP) = assay: Alamar Blue cell viability assay
# Description: as §4, §1, §5, §3
# MOLT-4 = assay: NCI60 cell line screen; conditions: Homo sapiens
compound,measurement,setting,value
"COc1ccc(C2C(c3ccccc3)C(=O)N2c2cc(OC)c(OC)c(OC)c2)cc1O (stereo not drawn) [Compound 4, 4-(3-Hydroxy-4-methoxyphenyl)-3-phenyl-1-(3,4,5-trimethoxyphenyl)-azetidin-2-one]",IC50,HL-60 parental,17.7 nM
same,IC50,"HL-60-MDR(PGP); Homo sapiens, HL60/MDR, HL-60-MDR(PGP), 72 h, Alamar blue, read-out: IC50",18.2 nM
same,RF,HL-60-MDR(PGP); IC50 HL-60-MDR(PGP) / IC50 HL-60 parental,1.03
same,IC50,A2780-parental,23.3 nM
same,IC50,[1],4 nM
same,effect on levels of apoptosis or G2/M,HUVEC cells; 1 nM,not sufficient to affect the levels of apoptosis or G2/M
same,apoptosis (subG0/G1),HUVEC cells; 10 nM,35.1%
same,cells in the G2/M phase,HUVEC cells; 10 nM,36.9%
same,apoptosis (subG0/G1),HUVEC cells; 50 nM,31.4%
same,cells in the G2/M phase,HUVEC cells; 50 nM,37.0%
same,apoptosis (subG0/G1),HUVEC cells; 100 nM,28.0%
same,cells in the G2/M phase,HUVEC cells; 100 nM,39.8%
same,effect on tubulin cytoskeleton,[2],gross morphological changes in their tubulin cytoskeleton typical of depolymerising agents
same,in vitro tubule formation,HUVECs,prevented spontaneous in vitro tubule formation
same,prevention of MDA-MB-231 cell migration,[3],95.7%
same,GI50,SNB-75,47 nM
same,IC50,"HL-60-BCRP; Homo sapiens, 72 h",25.3 nM
same,RF,HL-60-BCRP; IC50 HL-60-BCRP / IC50 HL-60 parental,1.4
same,IC50,"A2780-ADR (PGP); A2780 ADR, 72 h",10.4 nM
same,RF,A2780-ADR (PGP); IC50 A2780-ADR (PGP) / IC50 A2780-parental,0.5
"COc1ccc(C2C(c3ccccc3)C(=O)N2c2cc(OC)c(OC)c(OC)c2)cc1 (stereo not drawn) [Compound 8, 4-(4-Methoxy-phenyl)-3-phenyl-1-(3,4,5-trimethoxy-phenyl)-azetidin-2-one]",GI50,MOLT-4,31.6 nM
